One experiment concerns 11β-HSD1. The experiment is described as follows: semiquantitative RT-PCR, liver 11β-HSD1 mRNA. Particulars: HF diet-fed mice, normalized to GAPDH, vs HF group. In kind it is in vivo, C57BL/6J mice. From the text:
(§1) For part 2, C57BL/6J mice (4 weeks old) were obtained from the National Laboratory Animal Breeding and Research Center. The mice were divided randomly into two groups after 7 days acclimation. The control (CON) group (n=9) was fed a low-fat diet (diet 12450B, Research Diets, Inc., New Brunswick, N.J., USA), whereas the experimental group was fed a 45% high-fat diet (diet 12451, Research Diets, Inc.) for 12 weeks. The compositions of the experimental diets are given in previous studies. […]
(§2) Total RNA from the liver tissue was isolated with a Trizol reagent (Molecular Research Center, Inc., Cincinnati, Ohio, USA) according to the manufacturer's directions. The integrity of the extracted total RNA was examined by 2% agarose gel electrophoresis, and the RNA concentration was determined by ultraviolet (UV) light absorbency at 260 and 280 nm (spectrophotometer U-2800A, Hitachi). […] The relative density of the band was evaluated using AlphaDigiDoc 1201 software (Alpha Innotech Co., San Leandro, Calif., USA). All of the measured PCR products were normalized to the amount of cDNA of GAPDH in each sample. […]

Experiment [1] is described as follows: oral glucose tolerance test (OGTT) in normal mice. In kind it is in vivo. The conditions noted are these: 12 h fasted ICR mice; 0.2, 0.4 and 0.8 g/kg orally 30 min before oral glucose load 1 g/kg; from 30 to 120 min. Here is the method:
For part 1, an oral glucose tolerance test (OGTT) was performed on 12 h fasted ICR mice (n=5) that were allowed access to 0.2, 0.4, and 0.8 g/kg PTA or an equivalent amount of vehicle (water), which were given orally 30 min before an oral glucose load (1 g/kg body wt). The control group was given glucose, whereas the normal group was not. Blood samples were collected from the retro-orbital sinus of fasted mice at the time of the glucose administration (0) and every 30 min until 120 min after glucose administration.

In experiment [2] the test system is epididymal WAT and liver tissue. The experiment is described as follows: histopathology of epididymal WAT and liver tissue. In kind it is in vivo. Particulars: HF diet-fed C57BL/6J mice; for hepatocellular ballooning mean score: grade 0 none, 1 a few cells, 2 many cells. From the text: For part 2, C57BL/6J mice (4 weeks old) were obtained from the National Laboratory Animal Breeding and Research Center. The mice were divided randomly into two groups after 7 days acclimation. The control (CON) group (n=9) was fed a low-fat diet (diet 12450B, Research Diets, Inc., New Brunswick, N.J., USA), whereas the experimental group was fed a 45% high-fat diet (diet 12451, Research Diets, Inc.) for 12 weeks. The compositions of the experimental diets are given in previous studies. After 8 weeks, the high-fat treated mice were randomly subdivided into four groups (n=9) including PTA1 (0.06 g/kg/day), PTA2 (0.12 g/kg/day) or rosiglitazone (Rosi; 1% methylcellulose, 10 mg/kg body weight) (GlaxoSmithKline) or vehicle and treated by oral gavage one time per day from the 9th to 12th weeks, while the mice were still on the high-fat diet, whereas the CON and high-fat control (HF) mice were treated with vehicle only. At the end, food was withheld from the animals (from 10 p.m. to 10 a.m.). The next day, the mice were sacrificed for blood and tissue collection and analysis. Livers, skeletal muscles, and white adipose tissues (WATs) (including epididymal, mesenteric, and retroperitoneal WAT) were weighed and excised, followed by immediate freezing, and kept at −80° C. for target gene analysis. Heparin (30 units/mL) (Sigma) was added to blood samples. Plasma samples were collected within 30 min by centrifugation at 1600 g for 15 min at 4° C. Plasma was obtained for insulin and leptin assay.
Small pieces of epididymal WAT and liver tissue were fixed with formalin (200 g/kg) neutral buffered solution and embedded in paraffin. Sections (8 μm) were cut and stained with hematoxylin and eosin. For microscopic examination, a microscope (Leica, DM2500) was used, and the images were taken using a Leica Digital camera (DFC-425-C).

Another experiment has as its system PEPCK. The experiment is described as follows: semiquantitative RT-PCR, liver PEPCK mRNA. In kind it is in vivo, C57BL/6J mice. Particulars: HF diet-fed mice, normalized to GAPDH, vs HF group.
Description: as §1, §2

The next experiment concerns GLUT4. The experiment is described as follows: western blot, GLUT4 protein in skeletal muscle. In kind it is in vivo, C57BL/6J mice. Particulars: HF diet-fed mice.
Description: FIG. 4A is a western blot analysis showing the protein contents of GLUT4 in skeletal muscle, and phospho-AMPK (Thr172) and total-AMPK (Thr172) in both liver tissue and skeletal muscle, and phospho-Akt (Ser473) and total-Akt (Ser473) in skeletal muscle of the mice receiving tormentic acid (PTA) by oral gavage for 4 weeks; and
FIG. 4B is a diagram showing the protein contents of GLUT4 in skeletal muscle, the expression levels of phospho-AMPK (Thr172) to total AMPK in both liver tissue and skeletal muscle, and quantified results from FIG. 4A for the phosphorylation status of Akt (p-Akt normalized to total Akt (pAkt/Akt)) in skeletal muscle of the mice receiving tormentic acid (PTA) by oral gavage for 4 weeks.
as §1

In another experiment the test system is FAS. The experiment is described as follows: semiquantitative RT-PCR, liver FAS mRNA. In kind it is in vivo, C57BL/6J mice. Particulars: HF diet-fed mice, normalized to GAPDH, vs HF group.
Description: as §1, §2

The next experiment has as its system DGAT2. The experiment is described as follows: semiquantitative RT-PCR, liver DGAT2 mRNA. In kind it is in vivo, C57BL/6J mice. The conditions noted are these: HF diet-fed mice, normalized to GAPDH, vs HF group.
Description: as §1, §2

The subject of a further experiment is PPARα. The experiment is described as follows: semiquantitative RT-PCR, liver PPARα mRNA. In kind it is in vivo, C57BL/6J mice. The conditions noted are these: HF diet-fed mice, normalized to GAPDH.
Description: as §1, §2

Setting [3] is: PTA1 0.06 g/kg/day oral gavage 4 weeks.
Setting [4] is: PTA2 0.12 g/kg/day oral gavage 4 weeks.

“Also recorded” adds a separate entry of the source.

As for `C[C@@H]1CC[C@]2(C(=O)O)CC[C@]3(C)C(=CC[C@@H]4[C@@]5(C)C[C@@H](O)[C@H](O)C(C)(C)[C@@H]5CC[C@]43C)[C@@H]2[C@]1(C)O` [PTA, tormentic acid], the “mRNA level of 11β-HSD1 in liver” value with 11β-HSD1 (PTA1 0.06 g/kg/day 4 weeks) and with 11β-HSD1 (PTA2 0.12 g/kg/day 4 weeks) was “significantly decrease” throughout. In addition, the “levels of blood glucose (OGTT)” value in experiment [1] is on record as “decreased”. Also, the “average area of adipocytes (epididymal WAT)” value in experiment [2] (setting [3]) is recorded as 2380.9±108.6 μm2; in experiment [2] (setting [4]) it was 2243.2±100.9 μm^2. The “hepatocellular ballooning mean score” value in experiment [2] (setting [3]) turned out to be 1.0±0.2; in experiment [2] (setting [4]), 0.7±0.2. In addition, the “mRNA level of PEPCK in liver” value in the experiment with PEPCK (PTA1 0.06 g/kg/day 4 weeks) and with PEPCK (PTA2 0.12 g/kg/day 4 weeks) was “significantly decrease” in each case. Also, the “membrane protein levels of GLUT4” value with GLUT4 (PTA1 0.06 g/kg/day 4 weeks) is “significantly increased”; in the experiment with GLUT4 (PTA2 0.12 g/kg/day 4 weeks), “significantly increased; also recorded: marked increases”. Further, the “mRNA level of FAS in liver” value in the experiment with FAS (PTA1 0.06 g/kg/day 4 weeks) and with FAS (PTA2 0.12 g/kg/day 4 weeks) was “significantly decrease” each time. The “mRNA level of DGAT2 in liver” value with DGAT2 (PTA1 0.06 g/kg/day 4 weeks) and with DGAT2 (PTA2 0.12 g/kg/day 4 weeks) was “significantly decrease” each time. Further, the “mRNA levels of PPARα in liver” value in the experiment with PPARα (PTA1 0.06 g/kg/day 4 weeks) and in the experiment on PPARα (PTA2 0.12 g/kg/day 4 weeks) was “increased” in each case.
